The values below come from patent publication US5372813A (priority 1992, dated 1994).

Molecules are shown by their SMILES. Where two headings read alike, the source gives them in different places.

Data set [1] has as its system 5-HT reuptake complex. Briefly: in vivo blocking of 5-125I-6-NQP brain binding by co-injected drugs. The arrangement: species or system rat. Conditions: co-injection, LSD 0.5 mg/kg; GBR-12909 and DMI 2 mg/kg, in words.
From the text: A critical test of the in vivo behavior of the radioligand is the ability to block its specific binding.
Another data set concerns depression. The settings on record: patients, in words; cited from earlier work.
The target of data set [2] is T1, 5-HT (serotonin) reuptake complex (Rattus norvegicus, UniProt P31652).
T1 construct: from tissue; host or cells: rat cortical brain homogenates
Briefly: competition with 3H-paroxetine for the 5-HT reuptake complex in rat cortical brain homogenates (Ki). The format is binding. Conditions: Ki of analogue relative to Ki of 6-NQP. Here is the method: A potency ratio was also determined by comparing the Ki of the analogue to the Ki experimentally determined for the unsubstituted 6-Nitroquipazine.

For data set [3], the target named is T1, 5-HT (serotonin) reuptake complex. The data set is described as above. In kind it is binding.
A further data set has as its system 5-HT reuptake site. Briefly: neurotoxin (PCA) pretreatment study, 5-125I-6-NQP binding. The format is in vivo, rat. Conditions: PCA 10 mg/kg for 2 days. The text has this: The in vivo results were consistent with the reduction in Bmax measured by in vitro binding methods and indicated up to a 90% reduction in 5-HT reuptake site densities in lesioned rats.
The next data set deals with serotonin uptake system. Briefly: competition of known ligands against 5-125I-6-NQP in membrane preparation. The format is binding, rat. Conditions: versus e.g. sertraline and fluoxetine, in words. The procedure: In the second set of experiments, competition experiments were performed with known agonist and antagonists to the serotonin uptake system, post synaptic serotonin receptors, and a receptors of other brain receptor systems. These compounds were incubated against 5-^125 I-6-NQP to determine the concentration needed to displace 5-^125 I-6-NQP from the membrane preparations. The strongest competitors were those specific for the serotonin uptake system, (FIG. 2).

A short description of data set [4]: in vivo brain uptake, clearance and regional distribution of 5-125I-6-NQP after i.v. injection. The settings on record: rat. The procedure: Whole body distribution studies were performed in rats in accordance with the method of Carl Mathis, et al described in Nuclear Medicine and Biology 19: 571-588 (1992).
The ratios of regional activity concentrations to cerebellar concentrations are plotted in the left panel of FIG. 4. […] Also plotted in the right panel of FIG. 4 is the time course of specific binding (total regional radioactivity cerebellar radioactivity) in a representative tissue.

Data set [5] is described as follows: metabolite determination in brain and thyroid radioactivity after injection of 5-125I-6-NQP. The format is in vivo, rat. Here is the method:
The brains of rats which had been injected with 25 μCi of 5-^125 I-6-NQP 6 h earlier were removed, homogenized, and repeatedly extracted with ethyl acetate and added cold 5-I-6-NQP carrier. The ethyl acetate fractions were pooled and evaporated, and the concentrate subject to TLC and HPLC (with fraction collection) analyses to determine metabolites in the brain.

Data set [6] has as its system 5-HT reuptake complex. Briefly: ex vivo autoradiography of rat brain. The settings on record: 25 μCi, 2, 6 and 12 h post injection, in words. Here is the method:
Ex vivo autoradiography was performed on rats injected with 25 μCi 5-^125 I-6-NQP and killed at 2, 6 and 12 h post injection.

In the next data set the target is serotonin uptake sites (Rattus norvegicus, UniProt P31652). Briefly: Scatchard saturation binding of 5-125I-6-NQP to isolated rat brain membranes, control and PCA-treated. Conditions: PCA-treated versus control rats, in vitro, in words.
Where [7] appears, read: rat cortical brain homogenates, 3H-paroxetine displacement, read-out: In vitro Inhibition Constants (Ki) for the 5-HT Reuptake Site.

Sequence of serotonin uptake sites (P31652 whole entry): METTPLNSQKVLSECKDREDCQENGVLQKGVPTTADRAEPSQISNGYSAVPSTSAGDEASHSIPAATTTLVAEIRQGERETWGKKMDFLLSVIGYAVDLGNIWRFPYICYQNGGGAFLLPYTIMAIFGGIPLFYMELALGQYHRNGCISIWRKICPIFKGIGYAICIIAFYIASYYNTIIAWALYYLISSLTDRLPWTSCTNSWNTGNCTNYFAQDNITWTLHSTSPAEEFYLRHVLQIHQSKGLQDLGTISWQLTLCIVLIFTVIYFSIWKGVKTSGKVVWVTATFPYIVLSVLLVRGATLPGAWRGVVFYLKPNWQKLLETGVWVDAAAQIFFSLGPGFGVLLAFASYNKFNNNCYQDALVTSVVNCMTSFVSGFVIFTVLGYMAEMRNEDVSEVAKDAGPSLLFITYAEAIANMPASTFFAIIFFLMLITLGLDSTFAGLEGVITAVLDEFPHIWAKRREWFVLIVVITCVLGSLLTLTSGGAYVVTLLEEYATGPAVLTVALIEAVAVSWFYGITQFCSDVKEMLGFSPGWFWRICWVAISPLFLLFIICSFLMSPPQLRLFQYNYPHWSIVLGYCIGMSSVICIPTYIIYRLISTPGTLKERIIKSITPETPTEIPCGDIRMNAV
T1 sequence (P31652 whole entry, one chain of several): as the sequence (P31652 whole entry) above

As to `CCN(CC)C(=O)[C@@H]1C=C2c3cccc4[nH]cc(c34)C[C@H]2N(C)C1` [LSD], in the data set on 5-HT reuptake complex [1], the “radioactivity concentrations in brain regions” value is given as “little effect on radioactivity concentrations in these regions”.

As for `CNCCC(Oc1ccc(C(F)(F)F)cc1)c1ccccc1` (racemic) [fluoxetine, (±)-N--Methyl-3-Phenyl-3-[(ααα-trifluoro-p-tolyl)oxy]propylamine], in the data set on depression, the “anti-depressant efficacy compared with certain tricyclic amine drugs” value is “equal anti-depressant efficacy”; the “total side effects and dropouts compared with certain tricyclic amine drugs” value is “fewer total side effects and dropouts”.

In general, Ki refers to a measure of affinity in units of concentration, obtained from inhibition or displacement. Turning to `O=[N+]([O-])c1ccc2nc(N3CCNCC3)cc(Br)c2c1` [4-Br-6-NQP], the “Potency Ratio” value in [2] is recorded as 870. In addition, the Ki in data set [3] (setting [7]) came out at 200 ± 80 nM.

As for `O=[N+]([O-])c1cc2ccc(N3CCNCC3)nc2cc1Br` [7-Br-6-NQP, 7-Bromo-6-nitro-2-piperazinylquinoline], the “Potency Ratio” value in data set [2] came to 18. In [3], this compound returned a Ki of 4.1 ± 1.5 nM.

As for `O=[N+]([O-])c1cc(Br)c2nc(N3CCNCC3)ccc2c1` [8-Br-6-NQP, 8-Bromo-6-nitro-2-piperazinylquinoline], the “Potency Ratio” value in data set [2] came out at 78. This compound showed an inhibition constant (Ki) in data set [3] of 18 ± 3 nM.

As for `Fc1ccc(C(OCCN2CCN(CCCc3ccccc3)CC2)c2ccc(F)cc2)cc1` [GBR-12909], the “radioactivity concentrations in brain regions” value in the data set on 5-HT reuptake complex [1] is listed as “little effect on radioactivity concentrations in these regions”.

Turning to `CC(N)Cc1ccc(Cl)cc1` (stereo not shown) [PCA, p-chloroamphetamine], the “specifically bound radioactivity after PCA pretreatment” value in the data set with 5-HT reuptake site (i.v. 5-125I-6-NQP two weeks later, in words) was “regionally selective reduction of specifically bound radioactivity”. For the same compound, in the data set on 5-HT reuptake site (two weeks before), the “reduction in 5-HT reuptake site densities in lesioned rats” value is not above 90%.

For `O=[N+]([O-])c1ccc2nc(N3CCNCC3)ccc2c1` [6-NQP, 6-nitro-2-N-piperazinylquinoline, reference compound], the “Potency Ratio” value in data set [2] stood at 1. In data set [3] (setting [7]), the Ki was 0.23 ± 0.06 nM.

With `O=[N+]([O-])c1ccc2nc(N3CCNCC3)ccc2c1[125I]` [5-^125 I-6-NQP, [^125 I]5-Iodo-6-nitro-2-piperazinylquinoline], the “relative potency for the uptake site versus other serotonin uptake ligands” value with serotonin uptake system was “greater than that observed for other serotonin uptake ligands”. Besides, in data set [4] (25 μCi (11 pmoles) i.v., 5 min post injection), the whole brain accumulation is listed as 1.9 % of the injected dose. For the same compound, in [4] (i.v., 12 h period post injection, in words), the “ratios of regional to cerebellar activity concentrations” value is on record as “increase in a nearly linear manner over the 12 h period post injection”. In addition, in data set [4] (i.v., in words), the brain penetration entry is on record as “good brain penetration” and the “clearance of nonspecific binding (cerebellum) versus regions of high 5-HT innervation” value is on record as “more rapid than that of radioactivity clearance from brain regions containing high concentrations of 5-HT innervation”. In data set [4] (i.v., over 12 h, in words), the “loss of activity from the brain” value is “slow steady loss of activity from the brain over 12 h”. Further, in data set [5] (25 uCi, rat brain, 25 μCi, 6 h, read-out: unmetabolized radioligand in brain (organic phase radioactivity)), the remaining at 6 h was more than 98%. Besides, in [5] (rat, 6 h, in words), the “metabolic deiodination in vivo” value is recorded as “metabolic deiodination of 5-^125 I-6-NQP occurs in vivo in rats”. In addition, the “radioactivity in the thyroid gland” value in [5] (rat, 6 h post injection) is 11 % of the injected dose. Besides, the “binding distribution in rat brain by ex vivo autoradiography” value with 5-HT reuptake complex [6] is listed as “consistent with the known neuroanatomical distribution of the 5-HT reuptake complex”. Moreover, the “affinity (Kd) after PCA treatment” value on serotonin uptake sites is reported as “little change in the affinity (Kd)”. Moreover, on serotonin uptake sites (listed as INQUIP), the “affinity (Kd) after PCA treatment” value was “without change in affinity” and the “total binding (Bmax) after PCA treatment” value is “enormous reduction in binding after PCA treatment”.

On to `O=[N+]([O-])c1ccc2nc(N3CCNCC3)c(Br)cc2c1` [3-Br-6-NQP, 3-Bromo-6-nitro-2-piperazinylquinoline], for which, in [2], the “Potency Ratio” value worked out at 42. In data set [3], this compound returned a Ki of 9.6 ± 2.6 nM.

Regarding `O=[N+]([O-])c1ccc2nc(N3CCNCC3)ccc2c1Br` [5-Br-6-NQP, 5-Bromo-6-nitro-2-piperazinylquinoline], the “Potency Ratio” value in data set [2] worked out at 0.57. Moreover, in data set [3], the inhibition constant (Ki) amounted to 0.13 ± 0.02 nM.
